Measurements reported in patent US20260226006A1, “INDOLE COMPOUND, PREPARATION METHOD THEREFOR AND USE THEREOF” (SUZHOU MERNA THERAPEUTICS CO. LTD, priority 2023, published 2026).

Columns and labels:
HaCat cells = experiment: m6A methylation level of human HaCat keratinocytes, EpiQuik m6A RNA methylation quantification kit (Example 20); assay type: cell-based; conditions: for m6A methylation level of human HaCat keratinocytes / fold induction at 0.05 µM: 50 nM drug alone; for fold induction at 0.05 µM: Homo sapiens, read-out: m6A fold change relative to control group 1; for fold induction at 0.05 µM / m6A fold change relative to control group 1: HaCat cells, 24 hours
Protocol: HaCat cells were cultured in a DMEM culture medium containing 10% fetal bovine serum, 100 U/mL penicillin, and 100 μg/mL streptomycin. Culture dishes were placed in an incubator containing 5% CO2 for culture at 37° C. for 24 hours. An equal volume of DMSO was added in control group 1, 50 nM sorafenib, capecitabine, docetaxel, and osimertinib were respectively added in control groups A, B, C, and D, and 400 nM test compounds or nicotinamide were respectively added in sample groups A1-17, B1-17, C1-17, and D1-17 after the addition of 50 nM corresponding compounds. The cells were continuously cultured for 24 hours, washed with PBS, and then collected by high-speed centrifugation. Total RNA was extracted using a Trizol reagent (Sigma Aldrich), and RNA m6A methylation of a sample was quantitatively detected using an EpiQuik m6A RNA methylation quantification kit. The concentrations of positive control samples for a standard curve were 0.01 ng/μl, 0.02 ng/μl, 0.05 ng/μl, 0.1 ng/μl, 0.2 ng/μl, and 0.5 ng/μl. The absorbance at 450 nm was read using a microplate reader (Tecan GENios). A quantitative calculation formula for m6A is as follows:
m6A (ng)=(absorbance of sample well−absorbance of background well)/slope of standard curve m6A (%)=m6A (ng)/RNA amount of sample (ng)*100%.

paw plantar skin of rats = experiment: Rat models with hand-foot skin reaction, topical ointment (Example 22); assay type: in vivo, SD rats; conditions: for Incidence rate (successful modeling rate for hand-foot skin reaction): modeling drug alone by gavage once daily, no ointment, SD rats; for Incidence rate (successful modeling rate for hand-foot skin reaction) / Incidence rate: 30 days
Protocol: After adaptive feeding for one week, SD rats (with a body weight of approximately 200 g) were randomly divided into groups according to the body weight, with 12 rats in each group. Modeling drugs (including sorafenib, erlotinib, afatinib, and osimertinib) were respectively dissolved in a solution containing 5% of DMSO, 45% of PEG400, and 50% of H2O, and the modeling drugs were diluted to required concentrations and then administered once daily by gavage at doses shown in Table 3. After administration by gavage for 1 hour, 0.05 g of ointments containing different mass proportions of test compounds were evenly applied to left paws of the rats, a blank matrix ointment was applied to right paws of the rats to serve as a self-control, and no ointment was applied to the rats in a blank control group. After drug application, four limbs were continuously immobilized for 2 hours, then wiped with clean water to remove the residual drugs, removed from immobilization, and restored to free movement. The modeling drugs, the blank matrix ointment, and the ointments containing the test compounds were all administered once daily. After continuous administration for 30 days, the rats were euthanized, and paw plantar skin tissues were collected, fixed in 10% neutral formalin, […]. The ointments for the test compounds were prepared by mixing the compounds, white beeswax, white petrolatum, and light liquid paraffin in specific ratios (weight ratios of 3 ointments were respectively 1:18:58:23, 3:18:57:22, and 10:20:40:30). The blank matrix ointment was prepared by mixing white beeswax, white petrolatum, and light liquid paraffin in a specific ratio (weight ratio of 18:60:22).
Tissue staining: After dewaxing and rehydration, the paw plantar skin tissue sections of the above rats were stained in a hematoxylin solution for several minutes, cleaned, and placed in 1% acid alcohol for soaking until the sections faded to light blue-red. After cleaning with running water for 5 minutes, the sections were stained with eosin for 2-3 minutes, cleaned to remove excess dyes, dehydrated, then permeabilized by adding xylene for several minutes, and sealed and fixed with a neutral resin. The stratum corneum was observed under an optical microscope, and the thickness of the epidermal stratum corneum was measured using Dmetrix software.
Immunohistochemical staining: After dewaxing and hydration, the paw plantar skin tissue sections of the above rats were incubated with 3% H2O2 at room temperature for 30 minutes and blocked with 10% goat serum for 30 minutes after antigen retrieval. A KRT1 antibody (Abcam, ab93652) and a Loricrin antibody (Abcam, ab183646) were added dropwise, the sections were incubated overnight at 4° C., and an HRP secondary antibody (ZSGB-BIO, PV-6001) and a DAB kit (ZSG-BIO, ZLI9017) were added for color development. The sections were re-stained with hematoxylin, cleaned, and sealed and fixed with a neutral resin, and the expression amounts of KRT1 and Loricrin were observed under an optical microscope.
An incidence rate calculation method involves a proportion of animals in each group meeting the above criteria for determining successful modeling, that is, incidence rate=(number of successfully modeled rats/total number of rats in the group)*100%. […]

HaCaT keratinocytes = experiment: Inhibition of HBEGF-induced differentiation of HaCaT keratinocytes, marker mRNA by RT-PCR (Example 21); assay type: cell-based, human; conditions: 2.5 ng/mL human recombinant HBEGF protein + test compound, 24 hours
Protocol: Human HaCaT keratinocytes were cultured in a DMEM culture medium containing 10% fetal bovine serum, 100 U/mL penicillin, and 100 µg/mL streptomycin. The cells were seeded into a 96-well plate at a density of […] and placed in an incubator containing 5% carbon dioxide for culture at 37° C. for 24 hours. An equal volume of DMSO was added into control well 1, a 2.5 ng/mL human recombinant HBEGF protein (Abcam, ab205523) was added into control well 2, and a 2.5 ng/mL human recombinant HBEGF protein and corresponding concentrations of test compounds were added into sample wells. The cells were continuously cultured for 24 hours, washed with PBS, and then collected by high-speed centrifugation. Total RNA was extracted using a Trizol reagent (Sigma Aldrich). 1 μg of RNA was reverse-transcribed into cDNA using a cDNA reverse transcription kit (Transgene Biotech, AT311-03). 1.25 μL of a primer (with a primer sequence shown in Table 2), 10 μL of an iTag Universal SYBR Green supermix (Bio-Rad, 172-S125), and an appropriate amount of DEPC ultrapure water were added to formulate 20 μL of a reaction solution to perform an RT-PCR reaction. Upon completion of the reaction, the reaction solution was subjected to agarose gel electrophoresis to determine the mRNA expression amounts of keratinocyte differentiation markers KRT1, KRT10, Loricrin, and Involucrin.

[1] = successfully modeled rats, modeling drug
[2] = 50 nM capecitabine + 400 nM test compound
[3] = 50 nM docetaxel + 400 nM test compound
[4] = 50 nM osimertinib + 400 nM test compound
[5] = 50 nM sorafenib + 400 nM test compound

## CNC(=O)c1cc(Oc2ccc(NC(=O)Nc3ccc(Cl)c(C(F)(F)F)c3)cc2)ccn1 [Sorafenib, sorafenib, reference compound]
HaCat cells
  m6A methylation level of human HaCat keratinocytes: significantly increase
  fold induction at 0.05 µM: 4.5
Paw plantar skin of rats
  Incidence rate (successful modeling rate for hand-foot skin reaction): 9/12 (75%)
Paw plantar skin of rats; listed as sorafenib
  Incidence rate (successful modeling rate for hand-foot skin reaction): 75%
Paw plantar skin of rats; [1]
  KRT1 and Loricrin in tissues (immunohistochemical staining): significantly increased
  stratum corneum thickness of the paw plantar skin: significantly higher than that of normal rats

## NC(=O)c1cccnc1 [Nicotinamide, nicotinamide]
HaCat cells; [2]
  m6A fold change relative to control group 1: 4.5
HaCat cells; [3]
  m6A fold change relative to control group 1: 5.4
HaCat cells; [4]
  m6A fold change relative to control group 1: 5.0
HaCat cells; [5]
  m6A fold change relative to control group 1: 4.7

## CN1CC[C@H](C(N)=O)c2[nH]c3ccc(Cl)cc3c21 [Compound 8b, (S)-8-chloro-1-methyl-2,3,4,5-tetrahydropyrido[3,2-b]indole-4-carboxamide]
HaCat cells; 400 nM compound after 50 nM drug
  abnormal increase in the RNA m6A level of human keratinocytes caused by chemotherapeutic drugs and multikinase inhibitors: effectively inhibit
HaCat cells; [2]
  m6A fold change relative to control group 1: 1.0
HaCat cells; [3]
  m6A fold change relative to control group 1: 1.2
HaCat cells; [4]
  m6A fold change relative to control group 1: 1.0
HaCat cells; [5]
  m6A fold change relative to control group 1: 1.0
HaCaT keratinocytes
  mRNA expression amounts of HaCaT differentiation markers KRT1, KRT10, Loricrin, and Involucrin: significantly inhibited
Paw plantar skin of rats; afatinib 50 mg/kg, 1% compound ointment on left paw, left paw
  Incidence rate: 1/12 (8%)
Paw plantar skin of rats; afatinib 50 mg/kg, 1% compound ointment on left paw, right paw (blank matrix ointment)
  Incidence rate: 9/12 (75%)
Paw plantar skin of rats; afatinib 50 mg/kg, 3% compound ointment on left paw, left paw
  Incidence rate: 1/12 (8%)
Paw plantar skin of rats; afatinib 50 mg/kg, 3% compound ointment on left paw, right paw (blank matrix ointment)
  Incidence rate: 4/12 (33%)
Paw plantar skin of rats; afatinib 50 mg/kg, 10% compound ointment on left paw, left paw
  Incidence rate: 0/12 (0%)
Paw plantar skin of rats; afatinib 50 mg/kg, 10% compound ointment on left paw, right paw (blank matrix ointment)
  Incidence rate: 1/12 (8%)
Paw plantar skin of rats; compounds at a mass content of 1% in ointment
  incidence rate of hand-foot skin reaction at a drug application site: significantly decrease
Paw plantar skin of rats; compounds at mass contents of 3% and 10% in ointment
  incidence rate of hand-foot skin reaction in all paws of the rats: significantly decrease
Paw plantar skin of rats; erlotinib 70 mg/kg, 1% compound ointment on left paw, left paw
  Incidence rate: 2/12 (17%)
Paw plantar skin of rats; erlotinib 70 mg/kg, 1% compound ointment on left paw, right paw (blank matrix ointment)
  Incidence rate: 10/12 (83%)
Paw plantar skin of rats; erlotinib 70 mg/kg, 3% compound ointment on left paw, left paw
  Incidence rate: 1/12 (8%)
Paw plantar skin of rats; erlotinib 70 mg/kg, 3% compound ointment on left paw, right paw (blank matrix ointment)
  Incidence rate: 4/12 (33%)
Paw plantar skin of rats; erlotinib 70 mg/kg, 10% compound ointment on left paw, left paw
  Incidence rate: 0/12 (0%)
Paw plantar skin of rats; erlotinib 70 mg/kg, 10% compound ointment on left paw, right paw (blank matrix ointment)
  Incidence rate: 0/12 (0%)
Paw plantar skin of rats; osimertinib 60 mg/kg, 1% compound ointment on left paw, left paw
  Incidence rate: 1/12 (8%)
Paw plantar skin of rats; osimertinib 60 mg/kg, 1% compound ointment on left paw, right paw (blank matrix ointment)
  Incidence rate: 9/12 (75%)
Paw plantar skin of rats; osimertinib 60 mg/kg, 3% compound ointment on left paw, left paw
  Incidence rate: 1/12 (8%)
Paw plantar skin of rats; osimertinib 60 mg/kg, 3% compound ointment on left paw, right paw (blank matrix ointment)
  Incidence rate: 3/12 (25%)
Paw plantar skin of rats; osimertinib 60 mg/kg, 10% compound ointment on left paw, left paw
  Incidence rate: 0/12 (0%)
Paw plantar skin of rats; osimertinib 60 mg/kg, 10% compound ointment on left paw, right paw (blank matrix ointment)
  Incidence rate: 0/12 (0%)
Paw plantar skin of rats; paw plantar skin of modeled rats, topical ointment
  formation of blisters, inflammatory cell infiltration in the dermis and skin congestion (pathological scoring): effectively improve
Paw plantar skin of rats; sorafenib 100 mg/kg, 1% compound ointment on left paw, left paw
  Incidence rate: 1/12 (8%)
Paw plantar skin of rats; sorafenib 100 mg/kg, 1% compound ointment on left paw, right paw (blank matrix ointment)
  Incidence rate: 8/12 (67%)
Paw plantar skin of rats; sorafenib 100 mg/kg, 3% compound ointment on left paw, left paw
  Incidence rate: 1/12 (8%)
Paw plantar skin of rats; sorafenib 100 mg/kg, 3% compound ointment on left paw, right paw (blank matrix ointment)
  Incidence rate: 3/12 (25%)
Paw plantar skin of rats; sorafenib 100 mg/kg, 10% compound ointment on left paw, left paw
  Incidence rate: 0/12 (0%)
Paw plantar skin of rats; sorafenib 100 mg/kg, 10% compound ointment on left paw, right paw (blank matrix ointment)
  Incidence rate: 1/12 (8%)
Paw plantar skin of rats; summary of Examples 21 and 22
  differentiation of keratinocytes both in vitro and in vivo: effectively inhibit
Paw plantar skin of rats; topical ointment, modeled rats
  stratum corneum thickness of the paw plantar skin of the modeled rats: effectively decrease

## C=CC(=O)Nc1cc(Nc2nccc(-c3cn(C)c4ccccc34)n2)c(OC)cc1N(C)CCN(C)C [Osimertinib, osimertinib, reference compound]
HaCat cells
  m6A methylation level of human HaCat keratinocytes: significantly increase
  fold induction at 0.05 µM: 4.8
Paw plantar skin of rats; rat, in vivo
  KRT1 and Loricrin in tissues (immunohistochemical staining): significantly increased
  stratum corneum thickness of the paw plantar skin: significantly higher than that of normal rats
